Reference: ChEMBL document CHEMBL1132573, “Novel antitumor 2-cyanoaziridine-1-carboxamides” (J Med Chem, 1999)
pIC50: −log10 of the molar value.

How the values were obtained:
Type in all cases: functional, cell-based
RPMI-8226 [1] = assay: Inhibition of cell growth in drug resistant 8226 myeloma cell line; details: Homo sapiens
RPMI-8226 [2] = assay: Inhibition of cell growth in drug sensitive 8226 myeloma cell line; details: Homo sapiens
A549 = assay: Inhibition of cell growth in (A-549) lung cell line; details: Homo sapiens
A-375 = assay: Inhibition of cell growth in (A375) melan cell line; details: Homo sapiens
L1210 [3] = assay: Inhibition of cell growth in (L1210 leukemia) MDR cells determined by MTT assay; details: Mus musculus
L1210 [4] = assay: Inhibition of cell growth in drug sensitive L1210 leukemia cell line determined by MTT assay; details: Mus musculus
MCF7 [5] = assay: Inhibition of cell growth in (MCF7 breast) dox cell line; details: Homo sapiens
MCF7 [6] = assay: Inhibition of cell growth in (MCF7 breast) mitox cell line; details: Homo sapiens
MCF7 [7] = assay: Inhibition of cell growth in drug sensitive MCF-7 breast cell line; details: Homo sapiens
OVCAR-3 = assay: Inhibition of cell growth in (OVCAR-3) ovarian cell line; details: Homo sapiens
WiDr [8] = assay: Inhibition of cell growth in drug resistant WiDr colon cell line; details: Homo sapiens
WiDr [9] = assay: Inhibition of cell growth in drug sensitive WiDr colon cell line; details: Homo sapiens

SMILES: N#CC1CN1C(=O)Nc1cccnc1 (stereo unspecified)
- pIC50 (RPMI-8226 [1]): 4.82
- pIC50 (RPMI-8226 [2]): 4.92
- pIC50 (A549): 4.80
- pIC50 (A-375): 4.92
- pIC50 (L1210 [3]): 4.80
- pIC50 (L1210 [4]): 4.96
- pIC50 (MCF7 [5]): 5.18
- pIC50 (MCF7 [6]): 5.27
- pIC50 (MCF7 [7]): 5.38
- pIC50 (OVCAR-3): 5.00
- pIC50 (WiDr [8]): 4.74
- pIC50 (WiDr [9]): 5.22

SMILES: CCCCNC(=O)N1CC1C#N (stereo unspecified)
- pIC50 (RPMI-8226 [1]): 4.77
- pIC50 (RPMI-8226 [2]): 4.77
- pIC50 (A549): 4.74
- pIC50 (A-375): 4.82
- pIC50 (L1210 [3]): 4.92
- pIC50 (L1210 [4]): 4.92
- pIC50 (MCF7 [5]): 5.17
- pIC50 (MCF7 [6]): < 4.92
- pIC50 (MCF7 [7]): < 4.92
- pIC50 (OVCAR-3): 4.92
- pIC50 (WiDr [8]): 4.74
- pIC50 (WiDr [9]): 4.85

SMILES: N#CC1CN1C(=O)NCc1ccccc1 (stereo unspecified)
- pIC50 (RPMI-8226 [1]): 4.96
- pIC50 (RPMI-8226 [2]): 5.05
- pIC50 (A549): 5.13
- pIC50 (A-375): 4.96
- pIC50 (L1210 [3]): 5.00
- pIC50 (L1210 [4]): 5.42
- pIC50 (MCF7 [5]): 5.22
- pIC50 (MCF7 [6]): 5.47
- pIC50 (MCF7 [7]): 5.13
- pIC50 (OVCAR-3): 5.30
- pIC50 (WiDr [8]): 5.00
- pIC50 (WiDr [9]): 5.28

SMILES: N#CC1CN1C(=O)Nc1ccc(Cl)c(Cl)c1 (stereo unspecified)
- pIC50 (RPMI-8226 [1]): 5.57
- pIC50 (RPMI-8226 [2]): 5.96
- pIC50 (A549): 5.12
- pIC50 (A-375): 5.23
- pIC50 (L1210 [3]): 5.14
- pIC50 (L1210 [4]): 5.59
- pIC50 (MCF7 [5]): 5.14
- pIC50 (MCF7 [6]): 5.36
- pIC50 (MCF7 [7]): 5.34
- pIC50 (OVCAR-3): 5.25
- pIC50 (WiDr [8]): 4.85
- pIC50 (WiDr [9]): 5.15

SMILES: CCOC(=O)c1ccc(NC(=O)N2CC2C#N)cc1 (stereo unspecified)
- pIC50 (RPMI-8226 [1]): 5.52
- pIC50 (RPMI-8226 [2]): 5.52
- pIC50 (A549): 5.54
- pIC50 (A-375): 5.24
- pIC50 (L1210 [3]): 5.01
- pIC50 (L1210 [4]): 5.01
- pIC50 (MCF7 [5]): 5.68
- pIC50 (MCF7 [6]): 5.48
- pIC50 (MCF7 [7]): 5.64
- pIC50 (OVCAR-3): 5.11
- pIC50 (WiDr [8]): 5.38
- pIC50 (WiDr [9]): 5.60

SMILES: N#CC1CN1C(=O)Nc1ccc(F)cc1 (stereo unspecified)
- pIC50 (RPMI-8226 [1]): 5.23
- pIC50 (RPMI-8226 [2]): 5.30
- pIC50 (A549): 5.21
- pIC50 (A-375): 5.47
- pIC50 (L1210 [3]): 5.23
- pIC50 (L1210 [4]): 5.14
- pIC50 (MCF7 [5]): 5.62
- pIC50 (MCF7 [6]): 5.57
- pIC50 (MCF7 [7]): 5.72
- pIC50 (OVCAR-3): 5.23
- pIC50 (WiDr [8]): 5.05
- pIC50 (WiDr [9]): 5.68

SMILES: N#CC1CN1C(=O)Nc1cccc2ccccc12 (stereo unspecified)
- pIC50 (RPMI-8226 [1]): 5.05
- pIC50 (RPMI-8226 [2]): 5.10
- pIC50 (A549): 5.60
- pIC50 (A-375): 5.38
- pIC50 (L1210 [3]): 5.60
- pIC50 (L1210 [4]): 5.14
- pIC50 (MCF7 [5]): 5.77
- pIC50 (MCF7 [6]): 5.70
- pIC50 (MCF7 [7]): 5.70
- pIC50 (OVCAR-3): 5.23
- pIC50 (WiDr [8]): 5.60
- pIC50 (WiDr [9]): 5.62

SMILES: N#CC1CN1C(=O)NC1CCCCC1 (stereo unspecified)
- pIC50 (RPMI-8226 [1]): 4.01
- pIC50 (RPMI-8226 [2]): 4.44
- pIC50 (A549): 5.00
- pIC50 (A-375): 4.46
- pIC50 (L1210 [3]): 4.80
- pIC50 (L1210 [4]): 5.13
- pIC50 (MCF7 [5]): 5.05
- pIC50 (MCF7 [6]): 5.01
- pIC50 (MCF7 [7]): 4.89
- pIC50 (OVCAR-3): 4.51
- pIC50 (WiDr [8]): 4.92
- pIC50 (WiDr [9]): 5.62

SMILES: CC(C)(C)NC(=O)N1CC1C#N (stereo unspecified)
- pIC50 (RPMI-8226 [1]): 3.67
- pIC50 (RPMI-8226 [2]): 3.92
- pIC50 (A549): 3.74
- pIC50 (A-375): 3.38
- pIC50 (L1210 [3]): 3.34
- pIC50 (L1210 [4]): 3.88
- pIC50 (MCF7 [5]): 3.72
- pIC50 (MCF7 [6]): 3.92
- pIC50 (MCF7 [7]): < 3.52
- pIC50 (OVCAR-3): 3.73
- pIC50 (WiDr [8]): < 3.52
- pIC50 (WiDr [9]): 3.74

SMILES: N#CC1CN1C(N)=O (stereo unspecified)
- pIC50 (A-375): < 4.05
- pIC50 (L1210 [3]): < 4.05
- pIC50 (L1210 [4]): < 4.05
- pIC50 (MCF7 [5]): < 4.27
- pIC50 (MCF7 [6]): < 4.27
- pIC50 (MCF7 [7]): < 4.27
- pIC50 (OVCAR-3): < 4.05

SMILES: N#CC1CN1C(=O)Nc1ccc(C(F)(F)F)cc1 (stereo unspecified)
- pIC50 (RPMI-8226 [1]): 5.11
- pIC50 (RPMI-8226 [2]): 5.09
- pIC50 (A549): 5.37
- pIC50 (A-375): 4.93
- pIC50 (L1210 [3]): 5.15
- pIC50 (L1210 [4]): 5.11
- pIC50 (MCF7 [5]): 5.85
- pIC50 (MCF7 [6]): 5.89
- pIC50 (MCF7 [7]): 5.82
- pIC50 (OVCAR-3): 5.23
- pIC50 (WiDr [8]): 5.24
- pIC50 (WiDr [9]): 5.89

SMILES: N#CC1CN1C(=O)Nc1ccc(S(N)(=O)=O)cc1 (stereo unspecified)
- pIC50 (RPMI-8226 [1]): < 4.42
- pIC50 (RPMI-8226 [2]): < 4.42
- pIC50 (A549): < 4.42
- pIC50 (A-375): 3.73
- pIC50 (L1210 [3]): < 4.42
- pIC50 (L1210 [4]): < 4.42
- pIC50 (MCF7 [5]): < 4.82
- pIC50 (MCF7 [6]): < 4.82
- pIC50 (MCF7 [7]): < 4.82
- pIC50 (OVCAR-3): 3.73
- pIC50 (WiDr [8]): < 4.42
- pIC50 (WiDr [9]): < 4.42

SMILES: CC(=O)c1cccc(NC(=O)N2CC2C#N)c1 (stereo unspecified)
- pIC50 (RPMI-8226 [1]): 5.02
- pIC50 (RPMI-8226 [2]): 5.06
- pIC50 (A549): 5.25
- pIC50 (A-375): 5.10
- pIC50 (L1210 [3]): 5.10
- pIC50 (L1210 [4]): 5.02
- pIC50 (MCF7 [5]): 5.49
- pIC50 (MCF7 [6]): 5.46
- pIC50 (MCF7 [7]): 5.44
- pIC50 (OVCAR-3): 5.00
- pIC50 (WiDr [8]): 5.05
- pIC50 (WiDr [9]): 5.48

SMILES: COC(=O)c1ccccc1NC(=O)N1CC1C#N (stereo unspecified)
- pIC50 (RPMI-8226 [1]): < 4.41
- pIC50 (RPMI-8226 [2]): < 4.41
- pIC50 (A549): < 4.39
- pIC50 (A-375): < 4.41
- pIC50 (L1210 [3]): < 4.41
- pIC50 (L1210 [4]): < 4.41
- pIC50 (MCF7 [5]): < 4.80
- pIC50 (MCF7 [6]): < 4.80
- pIC50 (MCF7 [7]): < 4.80
- pIC50 (OVCAR-3): < 4.41
- pIC50 (WiDr [8]): < 4.39
- pIC50 (WiDr [9]): 4.40

SMILES: N#CC1CN1C(=O)Nc1ccc(Cl)cc1Cl (stereo unspecified)
- pIC50 (RPMI-8226 [1]): 5.03
- pIC50 (RPMI-8226 [2]): 5.33
- pIC50 (A549): 5.60
- pIC50 (A-375): < 4.41
- pIC50 (L1210 [3]): 4.48
- pIC50 (L1210 [4]): 3.68
- pIC50 (MCF7 [5]): 5.96
- pIC50 (MCF7 [6]): 6.46
- pIC50 (MCF7 [7]): 6.05
- pIC50 (OVCAR-3): 4.46
- pIC50 (WiDr [8]): 5.72
- pIC50 (WiDr [9]): 5.66

SMILES: N#CC1CN1C(=O)Nc1ccc([N+](=O)[O-])cc1 (stereo unspecified)
- pIC50 (RPMI-8226 [1]): 5.07
- pIC50 (RPMI-8226 [2]): 5.04
- pIC50 (A549): 5.41
- pIC50 (A-375): 5.41
- pIC50 (L1210 [3]): 5.59
- pIC50 (L1210 [4]): 5.59
- pIC50 (MCF7 [5]): 5.52
- pIC50 (MCF7 [6]): 5.52
- pIC50 (MCF7 [7]): 5.52
- pIC50 (OVCAR-3): 5.19
- pIC50 (WiDr [8]): 5.43
- pIC50 (WiDr [9]): 5.37

SMILES: CNC(=O)N1CC1C#N (stereo unspecified)
- pIC50 (RPMI-8226 [1]): 4.59
- pIC50 (RPMI-8226 [2]): 4.59
- pIC50 (A549): 4.66
- pIC50 (A-375): 4.77
- pIC50 (L1210 [3]): 4.68
- pIC50 (L1210 [4]): 5.06
- pIC50 (MCF7 [5]): 4.77
- pIC50 (MCF7 [6]): 4.74
- pIC50 (MCF7 [7]): 4.57
- pIC50 (OVCAR-3): 4.85
- pIC50 (WiDr [8]): 4.64
- pIC50 (WiDr [9]): 4.68

SMILES: CCNC(=O)N1CC1C#N (stereo unspecified)
- pIC50 (RPMI-8226 [1]): 4.59
- pIC50 (RPMI-8226 [2]): 4.66
- pIC50 (A549): 4.74
- pIC50 (A-375): 4.44
- pIC50 (L1210 [3]): 4.85
- pIC50 (L1210 [4]): 4.85
- pIC50 (MCF7 [5]): 4.70
- pIC50 (MCF7 [6]): 5.00
- pIC50 (MCF7 [7]): 4.54
- pIC50 (OVCAR-3): 4.85
- pIC50 (WiDr [8]): 5.15
- pIC50 (WiDr [9]): 5.40
